Calls of active or inactive are those of the source. The calls are words filed in the database; no cut-off is given here.
Assays:
[1] = biological target: Programmed cell death protein 1/Programmed cell death 1 ligand 1 (Homo sapiens, UniProt Q9NZQ7); experiment: Inhibition of interaction of Fc(IgG1)-Avi)-(Biotin)-fused human PDL1 (19 to 239 residues)/Eu-labeled human PD-1 (25 to 167 residues) expressed in HEK293 cells pretreated with PDL1 for 15 mins followed by PD-1 addition and measured after 90 mins by TR-FRET assay; format: cell-based
[2] = biological target: T1, Programmed cell death 1 ligand 1 (Homo sapiens, UniProt Q9NZQ7); experiment: Inhibition of human recombinant PDL1 expressed in HEK293 cells assessed as restoration of Jurkat T cell activity by measuring increase in IFNgamma secretion at 1 uM incubated for 24 hrs by ELISA; format: cell-based; design: Activity: scale not given: the % may be the effect or the level left
[3] = tested on: MDA-MB-231; experiment: Antitumor activity against human MDA-MB-231 cells cocultured with CD3/CD28/CD2 T cell activator stimulated human PBMC cells assessed as increase in tumor cell viability incubated for 12 hrs by LDH assay; conditions: MDA-MB-231, 12 h
[4] = Tmax in Sprague-Dawley rat at 25 mg/kg, po by LC-MS/MS analysis; format: ADME, organism-based; conditions: in vivo
[5] = Toxicity against BALB/c mouse xenografted with mouse CT26 cells assessed as body weight loss at 10 to 20 mg/kg, ip qd for 2 weeks; format: organism-based; conditions: in vivo, 336 h, dose 10-20 mg/kg
[6] = biological target: T1, Programmed cell death 1 ligand 1; experiment: Inhibition of human recombinant PDL1 expressed in HEK293 cells assessed as restoration of Jurkat T cell activity by measuring increase in IL-2 secretion at 2.5 uM incubated for 24 hrs in presence of PD-L1v242 by ELISA; format: cell-based
[7] = tested on: L02; experiment: Cytotoxicity against human L02 cells assessed as cell viability at 0.625 to 10 uM incubated for 24 hrs by CCK8 assay; format: toxicity, cell-based; conditions: l02, 24 h, dose 0.625-10 µM
[8] = tested on: CT26; experiment: In vivo inhibition of PDL1 in BALB/c mouse xenografted with mouse CT26 cells assessed as induction of PDL1 degradation by measuring decrease in PDL1 protein expression in tumor at 10 to 20 mg/kg, ip qd for 2 weeks by immunohistochemical staining based analysis; format: functional, organism-based; conditions: dose 10-20 mg/kg
[9] = tested on: CT26; experiment: Antitumor activity against mouse CT26 cells xenografted in BALB/c mouse assessed as inhibition of tumor growth administered ip qd for 2 weeks; format: functional, organism-based; conditions: dose 10-20 mg/kg
[10] = biological target: T1, Programmed cell death 1 ligand 1; experiment: Inhibition of PDL1 in human RKO cells assessed as […] PDL1 internalization into cytosol incubated for 12 hrs by immunofluorescence assay; format: subcellular; conditions: dose 0.5-2 µM
[11] = Tmax in Sprague-Dawley rat at 5 mg/kg, iv by LC-MS/MS analysis; format: ADME, organism-based; conditions: in vivo
[12] = biological target: T1, Programmed cell death 1 ligand 1; experiment: Binding affinity to RED-NHS dye labeled human PDL1 incubated for 10 mins away from light by microscale thermophoresis analysis
[13] = biological target: T1, Programmed cell death 1 ligand 1; experiment: Inhibition of PDL1 (unknown origin) assessed as induction of PDL1 dimerization at protein to compound concentration ratio of 1:2 incubated for overnight by SEC analysis
[14] = tested on: CT26; experiment: Antitumor activity against mouse CT26 cells xenografted in BALB/c mouse assessed as decrease in tumor weight at 10 mg/kg, ip qd for 2 weeks; format: functional; conditions: CT26, 336 h
[15] = biological target: T1, Programmed cell death 1 ligand 1; experiment: Inhibition of PDL1 in human RKO cells assessed as […] PDL1 internalization into cytosol at 2 uM by immunofluorescence assay; format: subcellular; conditions: time 2-6 hrs, TDE = time-dependent effect
[16] = Oral bioavailability in Sprague-Dawley rat at 25 mg/kg by LC-MS/MS analysis; format: ADME, organism-based; conditions: in vivo
[17] = AUC(0 to t) in Sprague-Dawley rat at 5 mg/kg, iv by LC-MS/MS analysis; format: ADME, organism-based; design: dose 5 mg/kg, route iv; conditions: in vivo
[18] = AUC(0 to t) in Sprague-Dawley rat at 25 mg/kg, po by LC-MS/MS analysis; format: ADME, organism-based; design: dose 25 mg/kg, route po; conditions: in vivo
[19] = Cmax in Sprague-Dawley rat at 25 mg/kg, po by LC-MS/MS analysis; format: ADME, organism-based; design: dose 25 mg/kg, route po; conditions: in vivo
[20] = Toxicity against BALB/c mouse xenografted with mouse CT26 cells assessed as mortality at 10 to 20 mg/kg, ip qd for 2 weeks; format: organism-based; conditions: in vivo, 336 h, dose 10-20 mg/kg
[21] = Half life in Sprague-Dawley rat at 5 mg/kg, iv by LC-MS/MS analysis; format: ADME, organism-based; conditions: in vivo
[22] = tested on: NCM460; experiment: Cytotoxicity against human NCM460 cells assessed as cell viability at 0.625 to 10 uM incubated for 24 hrs by CCK8 assay; format: toxicity, cell-based; conditions: ncm460, 24 h, dose 0.625-10 µM
[23] = tested on: CT26; experiment: Antitumor activity against mouse CT26 cells xenografted in BALB/c mouse assessed as tumor shrinkage and reduction of tumor growth at 20 mg/kg, ip qd for 2 weeks by Hematoxylin-eosin staining based analysis; format: functional, organism-based
[24] = biological target: T1, Programmed cell death 1 ligand 1; experiment: Inhibition of PDL1 in human MDA-MB-231 cells assessed as induction of PDL1 degradation at 1 to 5 uM incubated for 24 hrs by western blot analysis; format: cell-based; conditions: dose 1-5 µM
[25] = tested on: CT26; experiment: Antitumor activity against mouse CT26 cells xenografted in BALB/c mouse assessed as decrease in tumor weight at 20 mg/kg, ip qd for 2 weeks; format: functional; conditions: CT26, 336 h
[26] = biological target: T1, Programmed cell death 1 ligand 1; experiment: Inhibition of human recombinant PDL1 expressed in HEK293 cells assessed as restoration of Jurkat T cell activity by measuring increase in IL-2 secretion incubated for 24 hrs by ELISA; format: cell-based; conditions: dose 0.3125-2.5 µM
[27] = Cmax in Sprague-Dawley rat at 5 mg/kg, iv by LC-MS/MS analysis; format: ADME, organism-based; design: dose 5 mg/kg, route iv; conditions: in vivo
[28] = Half life in Sprague-Dawley rat at 25 mg/kg, po by LC-MS/MS analysis; format: ADME, organism-based; conditions: in vivo
[29] = biological target: Programmed cell death 1 ligand 1 (Mus musculus, UniProt Q9EP73); experiment: Binding affinity to RED-NHS dye labeled mouse PDL1 incubated for 10 mins away from light by microscale thermophoresis analysis
[30] = tested on: CT26; experiment: Antitumor immunity against mouse CT26 cells xenografted in BALB/c mouse assessed as increase in infiltration of CD8+ cells in tumor administered ip qd for 2 weeks by immunohistochemical staining based analysis; format: functional, organism-based; conditions: dose 10-20 mg/kg
[31] = tested on: CT26; experiment: Antitumor activity against mouse CT26 cells xenografted in BALB/c mouse assessed as inhibition of tumor growth at 20 mg/kg, ip qd for 2 weeks; format: functional, organism-based
[32] = tested on: CT26; experiment: Antitumor immunity against mouse CT26 cells xenografted in BALB/c mouse assessed as increase in infiltration of CD8+ cells in tumor at 20 mg/kg, ip qd for 2 weeks by immunohistochemical staining based analysis; format: functional, organism-based
[33] = tested on: CT26; experiment: In vivo inhibition of PDL1 in BALB/c mouse xenografted with mouse CT26 cells assessed as induction of PDL1 degradation by measuring decrease in PDL1 protein expression in tumor at 20 mg/kg, ip qd for 2 weeks by immunohistochemical staining based analysis; format: functional, organism-based

Chain of Programmed cell death protein 1/Programmed cell death 1 ligand 1 (Q15116 whole entry, the tested form may be a part): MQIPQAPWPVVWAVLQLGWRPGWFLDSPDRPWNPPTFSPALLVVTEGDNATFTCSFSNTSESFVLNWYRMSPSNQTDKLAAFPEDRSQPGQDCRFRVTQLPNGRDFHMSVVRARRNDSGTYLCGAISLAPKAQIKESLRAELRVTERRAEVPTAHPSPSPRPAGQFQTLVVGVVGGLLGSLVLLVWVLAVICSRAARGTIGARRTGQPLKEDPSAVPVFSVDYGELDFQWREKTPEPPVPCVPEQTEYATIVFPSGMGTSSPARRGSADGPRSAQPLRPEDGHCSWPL
Chain of Programmed cell death protein 1/Programmed cell death 1 ligand 1 (Q9NZQ7 whole entry, the tested form may be a part): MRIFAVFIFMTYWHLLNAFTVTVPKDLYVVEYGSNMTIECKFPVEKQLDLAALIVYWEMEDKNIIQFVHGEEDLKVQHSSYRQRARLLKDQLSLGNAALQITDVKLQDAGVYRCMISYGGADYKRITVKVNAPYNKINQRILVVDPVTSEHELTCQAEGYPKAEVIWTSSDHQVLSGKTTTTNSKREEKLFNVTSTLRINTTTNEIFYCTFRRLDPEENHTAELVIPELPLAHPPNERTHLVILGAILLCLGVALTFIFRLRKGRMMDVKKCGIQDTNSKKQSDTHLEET
T1 sequence (Q9NZQ7 whole entry): as the sequence (Q9NZQ7 whole entry, the tested form may be a part) above
Chain of Programmed cell death 1 ligand 1 (Mus musculus, UniProt Q9EP73) (Q9EP73 whole entry): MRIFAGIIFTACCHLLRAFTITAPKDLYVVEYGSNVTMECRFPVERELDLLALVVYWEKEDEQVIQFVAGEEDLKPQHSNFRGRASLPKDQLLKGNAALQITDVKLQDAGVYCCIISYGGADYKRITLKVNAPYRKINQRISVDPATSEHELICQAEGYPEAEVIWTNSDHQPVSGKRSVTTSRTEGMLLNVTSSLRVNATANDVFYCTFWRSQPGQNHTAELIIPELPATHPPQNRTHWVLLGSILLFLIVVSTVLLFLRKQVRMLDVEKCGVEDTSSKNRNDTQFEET

Cc1c(C(=O)Nc2ccc(CNCCO)cn2)cccc1-c1cccc(-c2nnc(Nc3cccc(CNCCO)c3)o2)c1C
IC50 [1]: 14.5 nM

CC(=O)NCCNCc1cccc(Nc2nnc(-c3cccc(-c4cccc(-c5nnc(Nc6cccc(CNCCNC(C)=O)c6)o5)c4C)c3C)o2)c1
IC50 [1]: 58.8 nM

Cc1c(-c2nnc(Nc3ccc(CNCCO)cc3)o2)cccc1-c1cccc(-c2nnc(Nc3cccc(CNCCO)c3)o2)c1C
IC50 [1]: 714 nM

CC(=O)NCCNCc1ccc(NC(=O)c2cccc(-c3cccc(-c4nnc(Nc5cccc(CNCCO)c5)o4)c3C)c2C)nc1
IC50 [1]: 42 nM

COc1nc(-c2cccc(-c3cccc(-c4nnc(Nc5cccc(CNCCO)c5)o4)c3C)c2C)ccc1CNCCNC(C)=O
Activity [2]: 66% | IC50 [1]: 23.5 nM

Cc1c(-c2nnc(Nc3cccc(CNCCO)c3)o2)cccc1-c1cccc(-c2nnc(Nc3cccc(CNCCO)c3)o2)c1C
IC50 [1]: 78.4 nM

COc1nc(O[C@H]2CCc3c(-c4cccc(C(=O)Nc5ccc(CNC[C@@H]6CCC(=O)N6)cn5)c4Cl)cccc32)c(Cl)cc1CNC[C@@H]1CCC(=O)N1
EC50 [3]: ~800 nM | Tmax [4]: 0.3 h | Activity [5]: Non-Toxic | inhibition [6]: Active | Activity [7]: Non-Toxic | inhibition [8]: Active | Activity [9]: Dose-Dependent Effect | inhibition [10]: Dose-Dependent Effect | Tmax [11]: 1.8 min | Kd [12]: 24 nM | inhibition [13]: Active | Activity [2]: 80% | inhibition in vivo at 10 mg/kg [14]: 37% | IC50 [1]: 1.8 nM | inhibition [15]: Tde | bioavailability [16]: 1.6% | AUC(0-t) [17]: 890 ng·h/mL | AUC(0-t) [18]: 73.1 ng·h/mL | Cmax [19]: 22.6 ng/mL | Activity [20]: Non-Toxic | half-life [21]: 5.3 h | Activity [22]: Non-Toxic | Activity [23]: Active | inhibition [24]: Active | inhibition in vivo at 20 mg/kg [25]: 51% | inhibition [26]: Dose-Dependent Effect | Cmax [27]: 2370 ng/mL | half-life [28]: 5.8 h | Kd [29]: 790 nM | Activity [30]: Dose-Dependent Effect

COc1nc(O[C@H]2CCc3c(-c4cccc(C(=O)Nc5ccc(CNCCNC(C)=O)cn5)c4Cl)cccc32)c(Cl)cc1CNCCNC(C)=O
inhibition [2]: Active | IC50 [1]: 4.1 nM

COc1nc(O[C@H]2CCc3c(-c4cccc(C(=O)Nc5ccc(CNCCNC(C)=O)c(F)n5)c4Cl)cccc32)c(Cl)cc1CNCCNC(C)=O
IC50 [1]: 15.6 nM

COc1nc(O[C@H]2CCc3c(-c4cccc(C(=O)Nc5ccc(CNCCN(C)C)cn5)c4Cl)cccc32)c(Cl)cc1CNCCN(C)C
IC50 [1]: 4.2 nM

Cc1c(-c2ccc(CNCCO)cc2)cccc1-c1cccc(-c2nnc(Nc3cccc(CNCCO)c3)o2)c1C
IC50 [1]: 37.2 nM

Cc1c(Nc2nccc3cc(CN4CC[C@@H](O)C4)cnc23)cccc1-c1cccc(-c2nc3cc(CN4CC[C@@H](C(=O)O)C4)cc(C#N)c3o2)c1C
Activity [31]: Active | Activity [32]: Active | inhibition [33]: inactive

Cc1c(-c2cccc(-c3ccc(CNCCO)cc3)c2)cccc1-c1nnc(Nc2cccc(CNCCO)c2)o1
IC50 [1]: 42 nM

COc1nc(O[C@H]2CCc3c(-c4cccc(C(=O)Nc5ccc(CN6CCC7(CC6)CNC(=O)C7)cn5)c4Cl)cccc32)c(Cl)cc1CN1CCC2(CC1)CNC(=O)C2
IC50 [1]: 17.2 nM

COc1nc(-c2cccc(-c3cccc(-c4nnc(Nc5cccc(CNCCO)c5)o4)c3C)c2C)ccc1CNCCO
inhibition [2]: Active | IC50 [1]: 13.9 nM
